Laboratory results as given in ChEMBL document CHEMBL3301464, “MMV Malaria Box anti-babesial screening”.

Key:
[1] = (§1) MMV: Anti-babesial activity assay. Parasite pRBCs at 1% parasitemia were cultivated in 100 ul with 96-well plates at 2.5% and 5% hematocrits. The parasites were cultivated in triplicate for 4 days without replacement of the medium for each concentration of the compound.; assay type: functional, Babesia caballi
[2] = as §1; assay type: functional, Babesia bovis
[3] = as §1; assay type: functional, Babesia bigemina
[4] = as §1; assay type: functional, Babesia equi

Compound	IC50 [1] [µM]	IC50 [2] [µM]	IC50 [3] [µM]	IC50 [4] [µM]
COc1cccc(Cn2c(Oc3ccccc3)nc3c2c(=O)n(C)c(=O)n3C)c1	5.7	10.3	10	> 25
CCOc1cc(CNC(C)C(O)c2ccccc2)cc(Cl)c1OCC (stereo not given)	7.96	0.081	0.91	5.64
CCOc1c(Cl)cc(CNCC(O)c2ccccc2)cc1OC (stereo not given)	4.77	6.8	18.9	10
OC(CNCC1CCCO1)Cn1c2ccc(Cl)cc2c2cc(Cl)ccc21 (stereo not given)	10	21.1	0.79	11.9
COc1ccc2nc(C)cc(Nc3ccccc3O)c2c1	1	25	15.3	8.83
CCn1nc(-c2ccc(C(=O)OC)cc2)nc2c(=O)n(C)c(=O)nc1-2	0.09	12.8	7.89	5.06
CCOc1ccccc1CN1CCc2nc3cc(C(C)(C)C)nn3c(O)c2C1	0.068	20.2	9.87	10.1
Cc1cc(N2CCCC2)nc(Nc2ccc(NC(=O)CCc3ccccc3)cc2)n1	3.53	15.5	13.4	3.02
Cc1cc(NC(=O)c2cccc(C(F)(F)F)c2)n(-c2nc(-c3ccc4c(c3)OCO4)cs2)n1	0.08	18	8.83	12.3
CN1CCN(c2ncnc3c2[nH]c2ccc(Cl)cc23)CC1	6.4	10	8.54	8.25
CC1(c2ccccc2)Nc2ccccc2-c2nc3ccccc3n21 (stereo not given)	0.08	13.8	10	1
COc1cccc(C2(C)Nc3ccccc3-c3nc4ccccc4n32)c1 (stereo not given)	1	13.9	25	10
CC(C)CNC(=O)c1c(N)n(CCc2ccccc2F)c2nc3ccccc3nc12	1	10	7.67	13.3
CC(C)(C)CC(C)(C)NCC(O)COc1ccc(Cl)cc1Cl (stereo not given)	0.071	0.083	0.32	0.53
Cc1cccc(-n2ncc3c(O)nc(-n4nc(C)cc4NC(=O)c4cc5ccccc5o4)nc32)c1	0.073	4.48	0.41	0.47
O=C(Nc1ccc(Br)cc1)Nc1cccc(Cl)c1	> 25	7.66	12.8	9.12
COc1ccc2nc(C)cc(Nc3ccc(Cl)cc3)c2c1	> 25	2.4	8.15	4.29
O=C(NC1CCN(Cc2ccccc2)CC1)c1cc(-c2ccncc2)nc2ccc(Cl)cc12	0.076	3.99	7.3	0.39
COc1ccc2nc(C)cc(Nc3cccc(O)c3)c2c1	> 25	13.4	25	4.19
COc1cc2cc(C(=O)Nc3ccccc3)c(N)nc2cc1OC	6.22	0.86	21.1	3.04
CN(C)CCCNCc1ccc(-c2ccc(F)c(Cl)c2)o1	0.69	2.45	4.61	4.09
O=c1nc(C=Cc2ccc(Br)cc2)oc2ccccc12	13.6	15.3	10	14.3

Compound	IC50 [1] [µM]	IC50 [2] [µM]	IC50 [3] [µM]	IC50 [4] [µM]
COc1ccc2nc(N)nc(C)c2c1	4.19	7.23	15.6	3.03
Cc1sc2ncnc(Sc3nc4ccccc4[nH]3)c2c1C	0.29	0.05	0.41	5.5
CCC(=O)Nc1nnc(Cc2ccc(OC)c(OC)c2)s1	4.65	1.29	10	12.4
Oc1ccccc1CN1CCN(C(c2ccccc2)c2ccccc2)CC1	3.72	15.3	25	4.37
CC(=O)Nc1nnc(SCc2c(C)cc(C(C)(C)C)cc2C)s1	12.8	> 25	11.4	15.8
O=C(Nc1ccc(CN2CCOCC2)cc1)c1ccc(-c2cc(Cl)ccc2Cl)o1	0.069	25	10	10
CN1CCN(c2c3c(c(C#N)c4nc5ccccc5n24)CCC3)CC1	> 25	13.3	19.2	8.25
CCOc1ccc(C2N(C)c3ccccc3N2C)cc1	0.5	5.5	0.85	3.53
O=C(Nc1cccc(-c2nc3ccccc3[nH]2)c1)c1cccc(NC(=O)c2ccco2)c1	5.21	3.32	6.8	3.7
O=C(NC1CCN(Cc2ccccc2)CC1)c1cc(-c2cccnc2)nc2ccc(Cl)cc12	0.071	> 25	13.9	0.48
CCN(Cc1ccccc1)C1CCN(Cc2cc(Br)ccc2O)CC1	6.51	18.2	20.2	3.03
COc1nc(Nc2ccc(C(C)C)cc2)nc(OC)n1	0.076	1.03	10.1	12.3
CCN(CC)CCNc1ncnc2c1[nH]c1ccc(Br)cc12	4.19	1	3.03	4.6
CCOc1cccc(C(=O)Nc2ccc(-c3nc4ccccc4[nH]3)cc2)c1	0.075	17.2	5.64	10
Clc1cc(Br)ccc1-c1ccc(CNCC2CCNCC2)o1	12.4	0.33	4.19	5.93
Cc1cc(NC(=O)c2ccc(-c3ccccc3)cc2)no1	0.076	0.24	8.54	12.4
O=C(Nc1ccc(N2CCN(Cc3ccccc3)CC2)cc1)c1cccs1	0.08	1.87	8.47	3.32
CCOc1cc2c(cc1OCC)C(c1cc(C)c(O)c(C)c1)NCC2 (stereo not given)	21.1	1	19.2	3.7
O=C1CC(O)(C(F)(F)C(F)(F)F)Oc2ccccc21 (stereo not given)	0.8	> 25	16.3	0.65
COc1cc(SC)ccc1C(=O)N1CCCC(C)C1 (stereo not given)	12.3	19.4	> 25	5.79
CC1CC(C)CN(C(=O)c2ccc(Cl)cc2Cl)C1 (stereo not given)	3.9	6.8	14.7	19.4
OC(CNC1CCCC1)Cn1c2ccccc2c2ccccc21 (stereo not given)	3.53	1	17.3	3.9

Compound	IC50 [1] [µM]	IC50 [2] [µM]	IC50 [3] [µM]	IC50 [4] [µM]
Cc1ccc(NC(=O)Nc2cccc(Cl)c2)cc1F	0.074	11.1	10	14.3
Oc1ccc(Br)cc1CN1CCN(Cc2cccc(F)c2)CC1	14.3	17.3	> 25	13
O=c1nc(C=Cc2ccc(Cl)cc2)oc2ccccc12	11.5	14.3	> 25	8.25
O=C(NCc1ccco1)C1CCN(S(=O)(=O)c2ccc(Br)cc2)CC1	> 25	17	> 25	14.3
CN(C)c1ccc(N2C(N)=NC(N)=NC2(C)C)cc1	5.06	1	12.9	10.1
Clc1ccc2[nH]c3c(NCCCN4CCOCC4)ncnc3c2c1	1	7.75	1.1	7.38
COc1ccc(Nc2nc(NCc3ccccc3)c3ccccc3n2)cc1	3.7	0.06	2.16	4.77
Oc1c(CN2CCN(c3ccccc3F)CC2)cc(Br)c2cccnc12	14.7	3.32	4.6	12.8
OC(CNCc1ccccc1)Cn1c2ccccc2c2ccccc21 (stereo not given)	3.9	3.25	18	4.19
Oc1c2c(nc3cc(-c4ccccc4)nn13)CCCC2	1.29	5.5	> 25	0.44
CCCCc1c(C)nc2c(OC)cccc2c1O	5.64	10	15.3	14
Clc1ccc2c(N3CCCC3)ccnc2c1	6.86	7.09	9.15	8.83
CCOC(=O)C1CCN(C(=O)CN2C(=O)c3ccccc3C2c2c[nH]c3ccccc23)CC1 (stereo not given)	5.35	> 25	25	4.19
CCOc1ccc(CCNC(=O)c2cccs2)cc1OCC	15.3	25	> 25	13.9
Cc1cc(N2CCN(C3CCCC3)CC2)n2c(nc3ccccc32)c1C#N	0.38	0.75	0.1	0.065
O=c1c2c([nH]c3ccccc13)CCCC2	4.09	2.45	5.93	4.27
CCCCOc1ccc(C(=O)Nc2cc(C)on2)cc1	0.083	21.2	25	6.99
CCc1ccc(Nc2cc(C)nc3nc(C)nn23)cc1	0.074	13.5	10	10
CCN(CC)S(=O)(=O)c1ccc(-c2csc(Nc3ccc(C)c(C)c3)n2)cc1	0.08	11.9	10	14.2
Cc1c(C)n(CC(O)CNC2CCCCC2C)c2ccccc12 (stereo not given)	2.49	0.1	4.09	4.76
CCCCN(CCCC)S(=O)(=O)c1ccc(NC(=O)c2ccco2)cc1	3.81	10	25	14.2
